Experimental data from patent US7868026B2, “Therapeutic compounds” (Pfizer Inc., priority 2005, dated 2011).
Like-named read-outs stand apart in the source and are kept apart here.

What was measured:
Assay type in all cases: biochemical
CYP3A4 [1] = molecular target: T1, CYP3A4 (Homo sapiens, UniProt P08684); experiment: Determination of IC50 against CYP3A4 by measurement of inhibition of midazolam metabolism (human liver microsomes, 1-hydroxymidazolam by LC-MS/MS); design: 0.1 mg/mL human liver microsomes; settings: 2 μM midazolam, 0.1 mg/mL human liver microsomes
In short: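 Human liver microsomes (0.1 mg/mL) incubated 8 min with 2 μM midazolam and 1 mM NADPH in 100 mM potassium phosphate, pH 7.4. 1-Hydroxymidazolam quantified by LC-MS/MS (MRM) as peak area ratio to internal standard against a metabolite standard curve.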

CYP3A4 [2] = molecular target: T1, CYP3A4; experiment: Determination of IC50 against CYP3A4 by measurement of inhibition of testosterone metabolism (human liver microsomes, 6-β-OH-testosterone by LC-MS/MS); design: 0.1 mg/mL human liver microsomes; settings: read-out: IC50 (Testo.)
In short: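 Human liver microsomes (0.1 mg/mL) incubated with 25 μM testosterone and 1 mM NADPH in 100 mM potassium phosphate, pH 7.4, for eight minutes. 6-β-OH-testosterone measured by LC-MS/MS in MRM mode against an internal standard and quantified from a metabolite standard curve.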

CYP3A4 [3] = molecular target: T1, CYP3A4; experiment: Determination of compound Kiapp against recombinant CYP3A4 enzyme (BFC fluorescent substrate)
In short: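 Recombinant CYP3A4 (5.5 or 8 nM, with or without b5 depending on source) pre-incubated with inhibitor ≥30 min at room temperature in 100 mM sodium phosphate pH 7.0, 5 mM TCEP, 2% DMF. Reaction started with 200 uM NADPH and 5 uM BFC; initial fluorescence rates over 5 min fitted to Morrison tight-binding (non-partial) or Szedlacsek (partial) equations for Kiapp.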

[4] = Baculo. enzyme preparation, read-out: Kiapp (BFC, Baculo.)
[5] = Super. enzyme preparation, read-out: Kiapp (BFC, Super.)

T1 sequence (P08684 whole entry): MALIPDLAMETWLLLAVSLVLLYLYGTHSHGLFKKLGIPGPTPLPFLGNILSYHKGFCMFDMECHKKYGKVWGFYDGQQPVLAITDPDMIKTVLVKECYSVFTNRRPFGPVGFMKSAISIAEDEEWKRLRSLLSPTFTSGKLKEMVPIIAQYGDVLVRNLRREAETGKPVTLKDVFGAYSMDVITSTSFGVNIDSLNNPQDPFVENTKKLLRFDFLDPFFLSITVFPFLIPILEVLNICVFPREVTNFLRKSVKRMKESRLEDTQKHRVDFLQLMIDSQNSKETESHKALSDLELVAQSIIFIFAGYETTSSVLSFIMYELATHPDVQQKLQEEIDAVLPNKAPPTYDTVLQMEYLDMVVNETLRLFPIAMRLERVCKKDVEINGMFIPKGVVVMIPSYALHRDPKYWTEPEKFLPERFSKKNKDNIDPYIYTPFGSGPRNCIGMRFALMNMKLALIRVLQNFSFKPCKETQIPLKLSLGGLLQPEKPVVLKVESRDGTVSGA

Row | SMILES | IC50 (CYP3A4 [1]) [nM] | IC50 (CYP3A4 [2]) [nM] | Ki (CYP3A4 [3]; [4]) [nM] | Ki (CYP3A4 [3]; [5]) [nM]
1 | Cc1cncc(NS(=O)(=O)c2ccccc2C(=O)N2CCCCC2)c1 [Example 30, N-(5-methylpyridin-3-yl)-2-(piperidin-1-ylcarbonyl)benzenesulfonamide] | 56 | 125 | 690 | –
2 | COCCNC(=O)c1ccccc1S(=O)(=O)Nc1cnccc1C [Example 174, N-(2-methoxyethyl)-2-{[(4-methylpyridin-3-yl)amino]sulfonyl}benzamide] | 451 | 356 | > 1000 | 392
3 | Cc1ccccc1CCNC(=O)c1ccccc1S(=O)(=O)Nc1cccnc1 [Example 75, N-[2-(2-methylphenyl)ethyl]-2-[(pyridin-3-ylamino)sulfonyl]benzamide] | 16 | 13 | 43 | 2.4
4 | CCCCNC(=O)c1ccccc1S(=O)(=O)Nc1cncc(OC)c1 [Example 17, N-butyl-2-{[(5-methoxypyridin-3-yl)amino]sulfonyl}benzamide] | 26 | 62 | 133 | –
5 | O=C(NCCc1ccccn1)c1ccccc1S(=O)(=O)Nc1cccnc1 [Example 66, 2-[(pyridin-3-ylamino)sulfonyl]-N-(2-pyridin-2-ylethyl)benzamide] | 146 | 302 | > 1000 | 210
6 | COc1cncc(NS(=O)(=O)c2ccccc2C(=O)NCCc2cccc(Cl)c2)c1 [Example 152, N-[2-(3-chlorophenyl)ethyl]-2-{[(5-methoxypyridin-3-yl)amino]sulfonyl}benzamide] | 13 | 23 | 46.1 | 6.4
7 | COC[C@@H]1[C@@H]2C[C@@H]3[C@H]1CN(C(=O)c1ccccc1S(=O)(=O)Nc1cncc(OC)c1)[C@@H]3C2 [Example 194, 2-{[(3R,3aR,5R,6aR,7R)-7-(methoxymethyl)hexahydro-3,5-methanocyclopenta[b]pyrrol-1(2H)-yl]carbonyl}-N-(5-methoxypyridin-3-yl)benzenesulfonamide] | 73 | 99 | 376 | 68.5
8 | CCC(C)NC(=O)c1ccccc1S(=O)(=O)Nc1cncc(OC)c1 (centres unmarked) [Example 205, N-(sec-butyl)-2-{[(5-methoxypyridin-3-yl)amino]sulfonyl}benzamide] | < 15.5 | 27 | 206 | 41.9
9 | COc1cncc(NS(=O)(=O)c2ccccc2C(=O)N2CCCCC2)c1 [Example 16, N-(5-methoxypyridin-3-yl)-2-(piperidin-1-ylcarbonyl)benzenesulfonamide] | 65 | 117 | 433 | –
10 | CCN(Cc1ccccc1)C(=O)c1ccccc1S(=O)(=O)Nc1cccnc1 [Example 78, N-benzyl-N-ethyl-2-[(pyridin-3-ylamino)sulfonyl]benzamide] | 22 | > 750 | 158 | 13.8
11 | O=C(NCc1ccc2ncccc2c1)c1ccccc1S(=O)(=O)Nc1cccnc1 [Example 89, 2-[(pyridin-3-ylamino)sulfonyl]-N-(quinolin-6-ylmethyl)benzamide] | 54 | 60 | > 1000 | 218
12 | O=C(c1ccccc1S(=O)(=O)Nc1cccnc1)N1CCN(c2ccccn2)CC1 [Example 62, N-pyridin-3-yl-2-[(4-pyridin-2-ylpiperazin-1-yl)carbonyl]benzenesulfonamide] | 184 | 211 | > 1000 | 83.3
13 | CCOC(=O)N1CCN(C(=O)c2ccccc2S(=O)(=O)Nc2cccnc2)CC1 [Example 36, ethyl 4-{2-[(pyridin-3-ylamino)sulfonyl]benzoyl} piperazine-1-carboxylate] | > 750 | > 750 | > 1000 | –
14 | O=C(c1ccccc1S(=O)(=O)Nc1cccnc1)N1CCOCC1 [Example 21, 2-(morpholin-4-ylcarbonyl)-N-pyridin-3-ylbenzenesulfonamide] | > 750 | > 750 | > 1000 | –
15 | COc1ccc(CNC(=O)c2ccccc2S(=O)(=O)Nc2cccnc2)cc1 [Example 57, N-(4-methoxybenzyl)-2-[(pyridin-3-ylamino)sulfonyl]benzamide] | 69.6 | 93.3 | 353 | 35
16 | COc1cncc(NS(=O)(=O)c2ccccc2C(=O)NCC2CCCCC2)c1 [Example 200, N-(cyclohexylmethyl)-2-{[(5-methoxypyridin-3-yl)amino]sulfonyl}benzamide] | 12 | 21 | 36.1 | 9.9

The next lines start with the values.

Row | IC50 (CYP3A4 [1]) [nM] | IC50 (CYP3A4 [2]) [nM] | Ki (CYP3A4 [3]; [4]) [nM] | Ki (CYP3A4 [3]; [5]) [nM] | SMILES
17 | 13 | 12 | 8.6 | 3.5 | COc1cncc(NS(=O)(=O)c2ccccc2C(=O)NCc2ccc(F)c(C(F)(F)F)c2)c1 [Example 312, N-[4-fluoro-3-(trifluoromethyl)benzyl]-2-{[(5-methoxypyridin-3-yl)amino]sulfonyl}benzamide]
18 | 23 | 30 | 24 | 6.8 | COc1cncc(NS(=O)(=O)c2ccccc2C(=O)N(C)CCC(C)C)c1 [Example 338, 2-{[(5-methoxypyridin-3-yl)amino]sulfonyl}-N-methyl-N-(3-methylbutyl)benzamide]
19 | 29 | 63 | 164 | 18.7 | CCCN(C)C(=O)c1ccccc1S(=O)(=O)Nc1cncc(OC)c1 [Example 245, 2-{[(5-methoxypyridin-3-yl)amino]sulfonyl}-N-methyl-N-propylbenzamide]
20 | 37 | 49 | 221 | 45 | COc1ccc(CNC(=O)c2ccccc2S(=O)(=O)Nc2cncc(OC)c2)cc1 [Example 373, N-(4-methoxybenzyl)-2-{[(5-methoxypyridin-3-yl)amino]sulfonyl}benzamide]
21 | 6 | 18 | 7.6 | 1.1 | COc1cncc(NS(=O)(=O)c2ccccc2C(=O)NCc2ccc(F)c(F)c2)c1 [Example 368, N-(3,4-difluorobenzyl)-2-{[(5-methoxypyridin-3-yl)amino]sulfonyl}benzamide]
22 | 43 | 99 | 216 | 47.7 | CCOc1cncc(NS(=O)(=O)c2ccccc2C(=O)NC2CCCC2)c1 [Example 287, N-cyclopentyl-2-{[(5-ethoxypyridin-3-yl)amino]sulfonyl}benzamide]
23 | 132 | 223 | > 1000 | 142 | COCCCNC(=O)c1ccccc1S(=O)(=O)Nc1cncc(OC)c1 [Example 236, N-(3-methoxypropyl)-2-{[(5-methoxypyridin-3-yl)amino]sulfonyl}benzamide]
24 | 12 | 90 | 35.8 | 9.32 | CCOc1cncc(NS(=O)(=O)c2ccccc2C(=O)NCCC(C)C)c1 [Example 296, 2-{[(5-ethoxypyridin-3-yl)amino]sulfonyl}-N-(3-methylbutyl)benzamide]
25 | 53 | 161 | > 1000 | 120 | CCOCCNC(=O)c1ccccc1S(=O)(=O)Nc1cncc(C)c1 [Example 228, N-(2-ethoxyethyl)-2-{[(5-methylpyridin-3-yl)amino]sulfonyl}benzamide]
26 | 163 | 301 | 849 | 191 | COCCNC(=O)c1ccccc1S(=O)(=O)Nc1cncc(OC)c1 [Example 239, N-(2-methoxyethyl)-2-{[(5-methoxypyridin-3-yl)amino]sulfonyl}benzamide]
27 | 132 | 164 | 884 | 273 | CN(c1cccnc1)S(=O)(=O)c1ccccc1C(=O)N1CCOCC1 [Example 326, N-methyl-2-(morpholin-4-ylcarbonyl)-N-pyridin-3-ylbenzenesulfonamide]
28 | 19 | 28 | 26 | 7.24 | COc1cncc(NS(=O)(=O)c2ccccc2C(=O)N(C)Cc2ccc(F)c(F)c2)c1 [Example 285, N-(3,4-difluorobenzyl)-2-{[(5-methoxypyridin-3-yl)amino]sulfonyl}-N-methylbenzamide]
29 | < 3 | 16 | 1.6 | 0.618 | CCOc1cncc(NS(=O)(=O)c2ccccc2C(=O)NCCc2ccccc2C)c1 [Example 292, 2-{[(5-ethoxypyridin-3-yl)amino]sulfonyl}-N-[2-(2-methylphenyl)ethyl]benzamide]
30 | 32 | 48 | 77.8 | 24.9 | CCCCNC(=O)c1ccccc1S(=O)(=O)Nc1cncc(OCC)c1 [Example 306, N-butyl-2-{[(5-ethoxypyridin-3-yl)amino]sulfonyl}benzamide]
31 | 30 | 156 | 118 | 31.6 | COc1cncc(NS(=O)(=O)c2ccc(F)cc2C(=O)NCCC(C)C)c1 [Example 303, 5-fluoro-2-{[(5-methoxypyridin-3-yl)amino]sulfonyl}-N-(3-methylbutyl)benzamide]
